Our source for the IC50 values is paper PMC12102218 (Nature Communications, 2025).

The target of the test is T1, ENPP1 (Homo sapiens, UniProt P22413).
T1 sequence (P22413 1-925): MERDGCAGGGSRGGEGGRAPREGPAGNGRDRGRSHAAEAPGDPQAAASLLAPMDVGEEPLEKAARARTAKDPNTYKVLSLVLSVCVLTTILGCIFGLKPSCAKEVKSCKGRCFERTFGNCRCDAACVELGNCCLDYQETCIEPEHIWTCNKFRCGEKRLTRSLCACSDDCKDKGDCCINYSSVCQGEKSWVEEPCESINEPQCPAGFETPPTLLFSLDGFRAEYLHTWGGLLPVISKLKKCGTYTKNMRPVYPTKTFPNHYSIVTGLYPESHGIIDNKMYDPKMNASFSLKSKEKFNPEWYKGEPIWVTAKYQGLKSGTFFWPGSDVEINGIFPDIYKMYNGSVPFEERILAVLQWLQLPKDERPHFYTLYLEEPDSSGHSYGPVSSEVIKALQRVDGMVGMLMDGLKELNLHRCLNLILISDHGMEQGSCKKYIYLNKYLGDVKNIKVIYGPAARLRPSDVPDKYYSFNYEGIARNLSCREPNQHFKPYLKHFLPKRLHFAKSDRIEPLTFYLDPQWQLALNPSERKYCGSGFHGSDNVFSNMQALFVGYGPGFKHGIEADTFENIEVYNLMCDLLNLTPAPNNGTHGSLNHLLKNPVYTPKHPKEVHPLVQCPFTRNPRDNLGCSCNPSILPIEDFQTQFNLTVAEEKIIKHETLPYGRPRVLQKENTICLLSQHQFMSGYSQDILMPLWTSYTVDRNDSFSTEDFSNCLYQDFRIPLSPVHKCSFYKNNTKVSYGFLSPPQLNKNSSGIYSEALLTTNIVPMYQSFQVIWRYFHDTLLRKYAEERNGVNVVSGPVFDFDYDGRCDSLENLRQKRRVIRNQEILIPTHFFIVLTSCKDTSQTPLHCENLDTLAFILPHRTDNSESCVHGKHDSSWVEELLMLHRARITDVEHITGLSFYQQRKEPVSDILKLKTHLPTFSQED
In words: ENPP1 enzymatic assay, cGAMP hydrolysis. It counts as biochemical.

QS1: the IC50 is 142 nM.
